Measurements published in patent US9376420B2 (YUHAN CORPORATION, priority 2012, dated 2016).

Biological target: T1, human LXRβ (Homo sapiens, UniProt P55055)
T1 construct: expressed in transfected cells; host or cells: HEK293 cells (ATCC CRL-1573), transient transfection with pFA-hLXRβ/GAL4 and pUAS
T1 sequence (P55055 222-460 limits assumed): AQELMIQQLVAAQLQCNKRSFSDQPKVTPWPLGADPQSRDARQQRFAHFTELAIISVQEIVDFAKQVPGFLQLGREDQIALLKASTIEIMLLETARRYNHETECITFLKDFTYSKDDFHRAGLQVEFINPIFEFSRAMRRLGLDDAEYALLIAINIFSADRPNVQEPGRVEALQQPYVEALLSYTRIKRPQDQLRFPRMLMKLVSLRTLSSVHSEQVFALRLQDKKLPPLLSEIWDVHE
Test: Assay for Transcriptional Activity of LXRβ (GAL4-hLXRβ LBD luciferase reporter, transient transfection)
Format: cell-based
Details: HEK293 cells transfected with pFA-hLXRβ/GAL4 and pUAS, 24 hours; for Emax: fold value in comparison with the control (DMSO-treated group); for EC50: increase of transcriptional activity of LXRβ, average of three independent tests
How it was run: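 HEK293 cells transiently co-transfected with GAL4-hLXRβ LBD and 5×GAL4-UAS luciferase reporter, treated 24 h at 37 °C with compounds over 9 points (0.01–50 μM, half-log). Luminescence read after lysis; EC50 from four-parameter fit, mean of three independent tests, with a known LXR agonist as positive control.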

| Emax [fold] | EC50 [nM] | SMILES |
| --- | --- | --- |
| 36 | 495 | O=S(=O)(N1CC=C(c2ccc(C3CC(C(O)(C(F)(F)F)C(F)(F)F)=NN3c3ccccc3Cl)cc2)CC1)N1CCCC1 (centres unmarked) [Example 308, 1-(2-chloro-phenyl)-5-{4-[1-(pyrrolidine-1-sulfonyl)-1,2,3,6-tetrahydropyridin-4-yl]-phenyl}-3-[di-(trifluoromethyl)-hydroxy-methyl]-4,5-dihydro-1H-pyrazole] |
| 47 | 3350 | CC(=O)c1ccccc1-c1ccc(C2CC(C(O)(C(F)(F)F)C(F)(F)F)=NN2c2ccccc2Cl)cc1 (centres unmarked) [Example 241, 5-(2′-acetyl-biphenyl-4-yl)-1-(2-chloro-phenyl)-3-[di-(trifluoromethyl)-hydroxy-methyl]-4,5-dihydro-1H-pyrazole] |
| 67 | 3360 | CS(=O)(=O)N1CCN(c2cccc(C3CC(C(F)(F)C(F)(F)F)=NN3c3ccc(F)cc3F)c2)CC1 (centres unmarked) [Example 96, 1-(2,4-difluoro-phenyl)-5-[3-(4-methanesulfonyl-piperazin-1-yl)-phenyl]-3-pentafluoroethyl-4,5-dihydro-1H-pyrazole] |
| 43 | 706 | CN(C)S(=O)(=O)N1CCN(c2ccc(C3CC(C(O)(C(F)(F)F)C(F)(F)F)=NN3c3ccccc3Cl)cc2)CC1 (centres unmarked) [Example 316, 1-(2-chloro-phenyl)-5-[4-(4-dimethylsulfamoyl-piperazin-1-yl)-phenyl]-3-[di-(trifluoromethyl)-hydroxy-methyl]-4,5-dihydro-1H-pyrazole] |
| 107 | 625 | Cc1ccc(-c2ccc(C3CC(C(O)(C(F)(F)F)C(F)(F)F)=NN3c3ccccc3Cl)cc2)cc1 (centres unmarked) [Example 250, 1-(2-chloro-phenyl)-5-(4′-methyl-biphenyl-4-yl)-3-[di-(trifluoromethyl)-hydroxy-methyl]-4,5-dihydro-1H-pyrazole] |
| 37 | 3750 | CC(C)S(=O)(=O)N1CCCN(c2ccc(C3CC(C(O)(C(F)(F)F)C(F)(F)F)=NN3c3ccccc3Cl)cc2)CC1 (centres unmarked) [Example 324, 1-(2-chloro-phenyl)-5-[4-(4-isopropylsulfonyl-homopiperazin-1-yl)-phenyl]-3-[di-(trifluoromethyl)-hydroxy-methyl]-4,5-dihydro-1H-pyrazole] |
| 107 | 8 | CC(=O)N1CC=C(c2cccc(C3CC(C(O)(C(F)(F)F)C(F)(F)F)=NN3c3ccccc3Cl)c2)CC1 (centres unmarked) [Example 231, 5-[3-(1-acetyl-1,2,3,6-tetrahydropyridin-4-yl)-phenyl]-1-(2-chloro-phenyl)-3-[di-(trifluoromethyl)-hydroxy-methyl]-4,5-dihydro-1H-pyrazole] |
| 22 | 1170 | CN(C)C(=O)N1CC=C(c2ccc(C3CC(C(O)(C(F)(F)F)C(F)(F)F)=NN3c3ccc(F)cc3F)cc2)CC1 (centres unmarked) [Example 403, 1-(2,4-difluoro-phenyl)-5-[4-(1-dimethylcarbamoyl-1,2,3,6-tetrahydropyridin-4-yl)-phenyl]-3-[di-(trifluoromethyl)-hydroxy-methyl]-4,5-dihydro-1H-pyrazole] |
| 72 | 580 | CC(=O)c1ccc(-c2ccc(C3CC(C(O)(C(F)(F)F)C(F)(F)F)=NN3c3ccccc3Cl)cc2F)cc1 (centres unmarked) [Example 362, 5-(4′-acetyl-2-fluoro-biphenyl-4-yl)-1-(2-chloro-phenyl)-3-[di-(trifluoromethyl)-hydroxy-methyl]-4,5-dihydro-1H-pyrazole] |
| 43 | 4130 | CC(C)(C)OC(=O)N1CCN(c2ccc(C3CC(C(O)(C(F)(F)F)C(F)(F)F)=NN3c3ccccc3Cl)cn2)CC1 (centres unmarked) [Example 355, 1-(2-chloro-phenyl)-5-[6-(4-BOC-piperazin-1-yl)-pyridin-3-yl]-3-[di-(trifluoromethyl)-hydroxy-methyl]-4,5-dihydro-1H-pyrazole] |
| 80 | 1390 | CSc1ccc(-c2ccc(C3CC(C(O)(C(F)(F)F)C(F)(F)F)=NN3c3ccccc3Cl)cc2)cn1 (centres unmarked) [Example 266, 1-(2-chloro-phenyl)-5-[4-(6-methylsulfanyl-pyridin-3-yl)-phenyl]-3-[di-(trifluoromethyl)-hydroxy-methyl]-4,5-dihydro-1H-pyrazole] |
| 100 | 346 | CSc1ccc(-c2ccc(C3CC(C(O)(C(F)(F)F)C(F)(F)F)=NN3c3ccccc3Cl)s2)cn1 (centres unmarked) [Example 415, 1-(2-chloro-phenyl)-5-{5-[6-(methylsulfanyl)-pyridin-3-yl]-thiophen-2-yl}-3-[di-(trifluoromethyl)-hydroxy-methyl]-4,5-dihydro-1H-pyrazole] |
| 13 | 932 | CS(=O)(=O)N1CC=C(c2cccc(N3N=C(C(O)(C(F)(F)F)C(F)(F)F)CC3c3ccccc3Cl)c2)CC1 (centres unmarked) [Example 437, 5-(2-chloro-phenyl)-1-[3-(1-methylsulfonyl-1,2,3,6-tetrahydropyridin-4-yl)-phenyl]-3-[di-(trifluoromethyl)-hydroxy-methyl]-4,5-dihydro-1H-pyrazole] |
| 94 | 473 | OC(C1=NN(c2ccccc2Cl)C(c2ccc(-c3ccc(F)cc3)nc2)C1)(C(F)(F)F)C(F)(F)F (centres unmarked) [Example 353, 1-(2-chloro-phenyl)-5-[6-(4-fluoro-phenyl)-pyridin-3-yl]-3-[di-(trifluoromethyl)-hydroxy-methyl]-4,5-dihydro-1H-pyrazole] |

More lines, now with the values behind:

| SMILES | Emax [fold] | EC50 [nM] |
| --- | --- | --- |
| CN(C)S(=O)(=O)c1cccc(-c2cccc(C3CC(C(F)(F)C(F)(F)F)=NN3c3ccc(F)cc3F)c2)c1 (centres unmarked) [Example 87, 1-(2,4-difluoro-phenyl)-5-(3′-dimethylsulfamoyl-biphenyl-3-yl)-3-pentafluoroethyl-4,5-dihydro-1H-pyrazole] | 46 | 91 |
| CN(CCCS(=O)(=O)c1ccc(-c2cccc(C3CC(C(F)(F)C(F)(F)F)=NN3c3ccc(F)cc3F)c2)cc1)C(=O)OC(C)(C)C (centres unmarked) [Example 86, 5-{4′-[3-(N-BOC-N-methyl-amino)-propane-1-sulfonyl]-biphenyl-3-yl}-1-(2,4-difluoro-phenyl)-3-pentafluoroethyl-4,5-dihydro-1H-pyrazole] | 45 | 958 |
| CS(=O)(=O)c1ccc(-c2cc(C3CC(C(F)(F)C(F)(F)F)=NN3c3ccc(F)cc3F)ccc2F)cc1 (centres unmarked) [Example 129, 1-(2,4-difluoro-phenyl)-5-(6-fluoro-4′-methanesulfonyl-biphenyl-3-yl)-3-pentafluoroethyl-4,5-dihydro-1H-pyrazole] | 44 | 7990 |
| Cc1ncccc1-c1ccc(C2CC(C(O)(C(F)(F)F)C(F)(F)F)=NN2c2ccc(F)cc2F)cc1 (centres unmarked) [Example 376, 1-(2,4-difluoro-phenyl)-5-(4-(2-methyl-pyridin-3-yl)-phenyl)-3-[di-(trifluoromethyl)-hydroxy-methyl]-4,5-dihydro-1H-pyrazole] | 39 | 325 |
| CS(=O)(=O)N1CCN(c2cc(C3CC(C(F)(F)C(F)(F)F)=NN3c3ccc(F)cc3F)ccn2)CC1 (centres unmarked) [Example 194, 1-(2,4-difluoro-phenyl)-5-[2-(4-methanesulfonyl-piperazin-1-yl)-pyridin-4-yl]-3-pentafluoroethyl-4,5-dihydro-1H-pyrazole] | 95 | 3630 |
| Cn1c(-c2ccc(C3CC(C(O)(C(F)(F)F)C(F)(F)F)=NN3c3ccc(F)cc3F)cc2)cc2ccccc21 (centres unmarked) [Example 374, 1-(2,4-difluoro-phenyl)-5-[4-(1-methyl-1H-indol-2-yl)-phenyl]-3-[di-(trifluoromethyl)-hydroxy-methyl]-4,5-dihydro-1H-pyrazole] | 60 | 678 |
| CNCCCS(=O)(=O)c1cccc(-c2cccc(N3N=C(C(F)(F)C(F)(F)F)CC3c3ccc(F)cc3F)c2)c1.Cl (centres unmarked) [Example 212, 5-(2,4-difluoro-phenyl)-1-[3′-(3-methylamino-propane-1-sulfonyl)-biphenyl-3-yl]-3-pentafluoroethyl-4,5-dihydro-1H-pyrazole hydrochloride] | 9 | 1620 |
| CS(=O)(=O)c1cccc(-c2cc(C3CC(C(F)(F)C(F)(F)F)=NN3c3ccc(F)cc3F)ccn2)c1 (centres unmarked) [Example 188, 1-(2,4-difluoro-phenyl)-5-[2-(3-methanesulfonyl-phenyl)-pyridin-4-yl]-3-pentafluoroethyl-4,5-dihydro-1H-pyrazole] | 107 | 304 |
| CNCCCS(=O)(=O)c1cccc(-c2ccc(C3CC(C(O)(C(F)(F)F)C(F)(F)F)=NN3c3ccc(F)cc3F)cc2)c1 (centres unmarked) [Example 412, 1-(2,4-difluoro-phenyl)-5-{3′-[3-(methyl-amino)-propane-1-sulfonyl]-biphenyl-4-yl}-3-[di-(trifluoromethyl)-hydroxy-methyl]-4,5-dihydro-1H-pyrazole] | 53 | 727 |
| CS(=O)(=O)c1cc(F)c(-c2cccc(C3CC(C(F)(F)C(F)(F)F)=NN3c3ccc(F)cc3F)c2)cc1F (centres unmarked) [Example 68, 5-(2′,5′-difluoro-4′-methanesulfonyl-biphenyl-3-yl)-1-(2,4-difluoro-phenyl)-3-pentafluoroethyl-4,5-dihydro-1H-pyrazole] | 75 | 192 |
| OCc1ccc(-c2cccc(C3CC(C(F)(F)C(F)(F)F)=NN3c3ccc(F)cc3F)c2)nc1 (centres unmarked) [Example 91, 1-(2,4-difluoro-phenyl)-5-[3-(5-hydroxymethyl-pyridin-2-yl)-phenyl]-3-pentafluoroethyl-4,5-dihydro-1H-pyrazole] | 44 | 1460 |
